Results taken from paper PMC8162404, “Proteomimetic surface fragments distinguish targets by function” (Chemical Science, 2020).
pKd: −log10 of the molar value.

Experiments:
[1] = target: T1, CaM (Bos taurus, UniProt P62157); experiment: Pull-down assay with immobilized protein and LSM libraries; assay type: binding, bovine; conditions: H14 library; 1:2 stoichiometry assumed; read-out: Surface mapping KD (apparent)
T1 construct: made in house; host or cells: E. coli BL21 (DE3)
Method in brief: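 CaM buffer was 20 mM HEPES pH 7.4, 150 mM NaCl, 5 mM CaCl2. LSM sublibrary members ([…]) incubated 30 min, RT, with equimolar His-tagged protein on Co-NTA resin. HPLC-MS measured unbound probes; bound fraction relative to resin-only background gave dissociation constants.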

[2] = target: T2, S100B (Homo sapiens, UniProt P04271); experiment: Competition pull-down with native ligand RSK1 (689–735); assay type: binding; conditions: H14 library; competitor peptide 200 µM; read-out: Surface mapping KD (apparent), competition
T2 construct: made in house; host or cells: Escherichia coli BL21(DE3)
T2 sequence (P04271 1-92): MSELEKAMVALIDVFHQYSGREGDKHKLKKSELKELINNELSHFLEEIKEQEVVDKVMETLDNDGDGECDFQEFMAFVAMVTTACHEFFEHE

[3] = target: T3, RecQ-WH (Escherichia coli, UniProt P15043); experiment: Pull-down assay with immobilized protein and LSM libraries; design: species or system E. coli; conditions: H14 library; 1:1 binding assumed; read-out: Surface mapping KD (apparent)
T3 construct: coding for residues 408– 523 of E. coli RecQ; made in house; host or cells: E. coli BL21(DE3)
T3 sequence (P15043 408-523): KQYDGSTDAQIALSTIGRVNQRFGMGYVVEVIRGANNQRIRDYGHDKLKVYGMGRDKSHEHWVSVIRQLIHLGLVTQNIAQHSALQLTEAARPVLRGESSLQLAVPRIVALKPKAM
Method in brief: (§1)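 Buffers were HEPES pH 7.4 with 150 mM NaCl, plus 1 mM TCEP and 1 mM CaCl2 (50 mM HEPES) for S100A4 and S100B, 1 mM TCEP for Gal-1, and no additive for RecQ-WH. Immobilized protein at 64 µM was equilibrated 30 min with the LSM sublibrary, and unbound probes were measured by LC-MS.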

[4] = target: T4, Gal-1 (Homo sapiens, UniProt P09382); experiment: Competition pull-down with lactose; assay type: binding; conditions: H14 library; lactose 10 mM; read-out: Surface mapping KD (apparent), competition
T4 construct: made in house; host or cells: E. coli BL21(DE3)
T4 sequence (P09382 whole entry): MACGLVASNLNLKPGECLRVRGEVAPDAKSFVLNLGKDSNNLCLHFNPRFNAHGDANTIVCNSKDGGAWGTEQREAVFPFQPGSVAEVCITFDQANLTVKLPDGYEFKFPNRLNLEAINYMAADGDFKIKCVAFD
Method in brief: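 His6-tagged proteins immobilized on Co-NTA resin at 64 µM final with 64-member LSM foldamer sublibraries (1 M each, as printed) in pH 7.4 HEPES/NaCl buffers (Ca2+/TCEP per target), 30 min RT; competitor peptides 200 µM final, lactose 10 mM for Gal-1. Bound fractions from LC-MS loss vs protein-free resin; KD assuming 1:1 binding.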

[5] = target: T4, Gal-1; experiment: Pull-down assay with immobilized protein and LSM libraries; assay type: binding; conditions: H14 library; 1:1 binding assumed; read-out: Surface mapping KD (apparent)
Method in brief: as §1

[6] = target: T2, S100B; experiment: as above; assay type: binding; conditions: for pKd: H14 library, 1:1 binding assumed, read-out: Surface mapping KD (apparent); for Affinity class of probe (high, medium, low) in pull-down: H14 probes selected for validation
Method in brief: as §1

[7] = target: T5, S100A4 (Homo sapiens, UniProt P26447); experiment: as above; assay type: binding; conditions: for pKd: H14 library, 1:1 binding assumed, read-out: Surface mapping KD (apparent); for Affinity class of probe (high, medium, low) in pull-down: H14 probes selected for validation
T5 construct: made in house; host or cells: Escherichia coli BL21(DE3)
T5 sequence (P26447 whole entry): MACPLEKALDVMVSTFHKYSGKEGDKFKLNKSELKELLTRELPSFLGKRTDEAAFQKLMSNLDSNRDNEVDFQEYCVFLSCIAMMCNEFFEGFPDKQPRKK
Method in brief: as §1

[8] = target: T3, RecQ-WH; experiment: Competition pull-down with native ligand SSB-Ct8; assay type: binding, E. coli; conditions: H14 library; competitor peptide 200 µM; read-out: Surface mapping KD (apparent), competition
[9] = target: T1, CaM; experiment: Competition pull-down with native ligand TRPV1-Ct15; assay type: binding, bovine; conditions: H14 library; competitor peptide 200 µM; read-out: Surface mapping KD (apparent), competition
[10] = target: T5, S100A4; experiment: Competition pull-down with native ligand NMIIA (1893–1923); assay type: binding; conditions: H14 library; competitor peptide 200 µM; read-out: Surface mapping KD (apparent), competition

SMILES | pKd [1] | pKd [2] | pKd [3] | pKd [4] | pKd [5] | pKd [6] | pKd [7] | pKd [8] | pKd [9] | Affinity class of probe (high, medium, low) in pull-down [6] | Affinity class of probe (high, medium, low) in pull-down [7] | pKd [10] | Binding ([6]; H14 probes) | Binding ([7]; H14 probes)
CSCC[C@@H](CC(=O)N[C@H]1CCCC[C@@H]1C(N)=O)NC(=O)[C@H]1CCCC[C@@H]1NC(=O)[C@H]1CCCC[C@@H]1NC(=O)C[C@H](Cc1ccccc1)NC(=O)[C@H]1CCCC[C@@H]1N [H14 FM] | 5.70 | 3.45 | 3.65 | 3.60 | 3.55 | 4.72 | 4.66 | 3.34 | 3.96 |  |  |  |  | 
NC(=O)[C@H]1CCCC[C@@H]1NC(=O)C[C@H](Cc1ccccc1)NC(=O)[C@H]1CCCC[C@@H]1NC(=O)[C@H]1CCCC[C@@H]1NC(=O)C[C@H](Cc1ccc(O)cc1)NC(=O)[C@H]1CCCC[C@@H]1N [H14 YF] | 5.70 | 3.83 | 4.08 | 3.63 | 3.79 | 4.47 | 4.60 | 3.40 | 3.92 | medium | medium |  |  | 
CC(C)[C@@H](CC(=O)N[C@H]1CCCC[C@@H]1C(N)=O)NC(=O)[C@H]1CCCC[C@@H]1NC(=O)[C@H]1CCCC[C@@H]1NC(=O)C[C@H](Cc1ccc(O)cc1)NC(=O)[C@H]1CCCC[C@@H]1N [H14 YV] | 5.70 | 3.43 | 3.67 | 3.65 | 3.85 | 3.95 | 4.64 | 3.33 | 3.35 |  |  |  |  | 
N=C(N)NCCC[C@@H](CC(=O)N[C@H]1CCCC[C@@H]1C(=O)N[C@H]1CCCC[C@@H]1C(=O)N[C@H](CC(=O)N[C@H]1CCCC[C@@H]1C(N)=O)Cc1ccc(O)cc1)NC(=O)[C@H]1CCCC[C@@H]1N [H14 RY] | 4.80 |  |  |  |  | 4.40 | 3.95 |  |  |  |  | 3.49 |  | 
CC[C@H](C)[C@@H](CC(=O)N[C@H]1CCCC[C@@H]1C(N)=O)NC(=O)[C@H]1CCCC[C@@H]1NC(=O)[C@H]1CCCC[C@@H]1NC(=O)C[C@@H](NC(=O)[C@H]1CCCC[C@@H]1N)[C@@H](C)O [H14 TI] | 4.16 |  |  | 3.58 | 3.76 | 3.74 | 5.15 |  |  | low | high | 3.33 | does not | binds
CSCC[C@@H](CC(=O)N[C@H]1CCCC[C@@H]1C(N)=O)NC(=O)[C@H]1CCCC[C@@H]1NC(=O)[C@H]1CCCC[C@@H]1NC(=O)C[C@H](Cc1c[nH]c2ccccc12)NC(=O)[C@H]1CCCC[C@@H]1N [H14 WM] | 5.85 | 3.90 | 4.09 | 3.52 | 3.84 | 4.35 | 4.37 | 3.73 | 3.60 |  |  |  |  | 
NC(=O)[C@H]1CCCC[C@@H]1NC(=O)C[C@H](CO)NC(=O)[C@H]1CCCC[C@@H]1NC(=O)[C@H]1CCCC[C@@H]1NC(=O)C[C@H](Cc1c[nH]c2ccccc12)NC(=O)[C@H]1CCCC[C@@H]1N [H14 WS] | 5.05 | 3.36 | 3.68 |  | 3.33 | 3.86 | 3.75 | 3.45 | 3.51 |  |  |  |  | 
NC(=O)[C@H]1CCCC[C@@H]1NC(=O)C[C@H](Cc1ccccc1)NC(=O)[C@H]1CCCC[C@@H]1NC(=O)[C@H]1CCCC[C@@H]1NC(=O)C[C@H](Cc1c[nH]c2ccccc12)NC(=O)[C@H]1CCCC[C@@H]1N [H14 WF] | 5.40 | 3.75 | 4.21 | 4.23 | 4.42 | 4.85 | 5.00 | 3.97 | 4.54 |  |  |  |  | 
NC(=O)CC[C@@H](CC(=O)N[C@H]1CCCC[C@@H]1C(=O)N[C@H]1CCCC[C@@H]1C(=O)N[C@H](CC(=O)N[C@H]1CCCC[C@@H]1C(N)=O)Cc1c[nH]c2ccccc12)NC(=O)[C@H]1CCCC[C@@H]1N [H14 QW] | 4.57 | 3.33 | 3.84 | 3.74 | 3.77 | 4.10 |  | 3.47 | 3.77 |  |  |  |  | 
C[C@@H](CC(=O)N[C@H]1CCCC[C@@H]1C(=O)N[C@H]1CCCC[C@@H]1C(=O)N[C@H](CC(=O)N[C@H]1CCCC[C@@H]1C(N)=O)Cc1ccccc1)NC(=O)[C@H]1CCCC[C@@H]1N [H14 AF] | 5.30 | 3.45 | 3.32 | 3.48 | 3.92 | 4.35 | 4.89 | 3.34 |  |  |  |  |  | 
CC(C)C[C@@H](CC(=O)N[C@H]1CCCC[C@@H]1C(N)=O)NC(=O)[C@H]1CCCC[C@@H]1NC(=O)[C@H]1CCCC[C@@H]1NC(=O)C[C@@H](NC(=O)[C@H]1CCCC[C@@H]1N)[C@@H](C)O [H14 TL] | 4.16 |  |  | 3.58 | 3.76 | 3.74 | 5.15 |  |  |  |  | 3.33 |  | 
NC(=O)[C@H]1CCCC[C@@H]1NC(=O)C[C@H](Cc1ccccc1)NC(=O)[C@H]1CCCC[C@@H]1NC(=O)[C@H]1CCCC[C@@H]1NC(=O)C[C@H](Cc1ccccc1)NC(=O)[C@H]1CCCC[C@@H]1N [H14 FF] | 5.92 | 3.74 | 3.87 | 3.97 | 4.12 | 4.80 | 4.92 | 3.51 | 4.33 |  |  |  |  | 
CC(C)[C@@H](CC(=O)N[C@H]1CCCC[C@@H]1C(=O)N[C@H]1CCCC[C@@H]1C(=O)N[C@H](CC(=O)N[C@H]1CCCC[C@@H]1C(N)=O)Cc1c[nH]c2ccccc12)NC(=O)[C@H]1CCCC[C@@H]1N [H14 VW] | 4.89 | 4.22 | 3.66 | 3.68 | 4.01 | 4.80 | 4.96 | 3.34 | 3.82 |  |  |  |  | 
CC(C)[C@@H](CC(=O)N[C@H]1CCCC[C@@H]1C(N)=O)NC(=O)[C@H]1CCCC[C@@H]1NC(=O)[C@H]1CCCC[C@@H]1NC(=O)C[C@H](Cc1c[nH]c2ccccc12)NC(=O)[C@H]1CCCC[C@@H]1N [H14 WV] | 5.70 | 3.94 | 3.99 | 3.65 | 3.84 | 4.80 | 4.89 | 3.57 | 4.07 |  |  |  |  | 
